Data published in US6741954B2, “Selection method for odorants” (Symrise GmbH & Co. KG, priority 2000, dated 2004).
Like-named read-outs stand apart in the source and are kept apart here.

Experiments:
Format in all cases: physicochemical
[1] = Headspace above the wet washed hair: relative partition parameter headspace/shampoo (SPME-GC)
Procedure: (§1) The procedure is analogous in all examples.
The example reflects the scent impression, which is perceived from freshly washed hair. The shampoo is prepared as is generally customary. The mixture of 39 odorants is incorporated into the above-mentioned shampoo (1st) in an amount of 1%. A hair tress (2.5 g) is washed in 100 ml of a 20% shampoo solution in water by immersing 5-10 times and stirring, and then rinsed in 100 ml of clear water by immersing it three times. The hair tress is carefully patted with thin cellulose. The moist hair tress is transferred to a 100 ml Erlenmeyer flask sealed with a septum and left to stand for 3 h. The headspace above the washed and rinsed hair tress is extracted over 15 min using solid phase microextraction (SPME). The SPME needle is desorbed in a GC injector, and a gas chromatogram is recorded. […] The analytical results are then used mathematically as described above.

[2] = Headspace above the fresh gel room air freshener: relative partition parameter (SPME-GC); conditions: log of amount in headspace relative to amount in gel; 5% odorant mixture, 10 liter vessel, 1 h, SPME 15 min
Procedure: as §1
The example reflects the scent impression, which is perceived above a fresh gel room air freshener. The mixture of 39 odorants is incorporated into an air freshener in an amount of 5%. 100 g of the air freshener are placed in its customary presentation form in a large sealed 10 liter vessel. The air freshener is left to stand for one hour. The headspace above the air freshener is extracted using a SPME over 15 min. […] The analytical results are then used mathematically as described above.

[3] = Headspace above the candle wax: relative partition parameter (SPME-GC); conditions: log of amount in headspace relative to amount in candle wax; 5% odorant mixture, grated nonburning candle, SPME 15 min
Procedure: as §1
(§2) The example reflects the scent impression, which is perceived from a nonburning candle. The mixture of 39 odorants is incorporated into a candle in an amount of 5%. 20 g of the grated candle are transferred to a 100 ml Erlenmeyer flask sealed with a septum. The headspace above the candle is extracted using a SPME over 15 min. […] The analytical results are then used mathematically as described above.

[4] = Headspace above the washing powder: relative partition parameter (SPME-GC)
Procedure: as §1
as §2, with “freshly opened pack of laundry detergent.” for “nonburning candle.”, “in the above-mentioned washing powder” for “into a candle”, “0.5%.” for “5%.”, “washing powder” for “grated candle”, “shampoo” for “candle”

[5] = Headspace above the solution of WC scented block cleaner: relative partition parameter (SPME-GC); conditions: log of amount in headspace above 1% solution in water relative to amount in WC block; 1% odorant mixture, SPME 15 min
Procedure: as §1
as §2, with “WC scented block cleaner.” for “nonburning candle.”, “the toilet block” for “a candle”, “1%. A 1% solution” for “5%. 20 g”, “toilet block in water is prepared. 20 ml of this solution” for “grated candle”, “shampoo” for “candle”, “by means of” for “using”

[6] = Headspace above the soap bar: relative partition parameter (SPME-GC)
Procedure: as §1
The example reflects the scent impression, which is perceived from a fresh bar of soap. […] 20 g of the grated soap are transferred to a 100 ml Erlenmeyer flask sealed with a septum. The headspace above the shampoo is extracted using a SPME over 15 min. […] The analytical results are then used mathematically as described above.

[7] = Headspace above the shampoo: relative partition parameter (SPME-GC); conditions: log of amount in headspace relative to amount in shampoo; 1% odorant mixture, SPME 15 min
Procedure: as §1
as §2, with “freshly opened bottle of shampoo.” for “nonburning candle.”, “the above-mentioned shampoo (1)” for “a candle”, “1%.” for “5%.”, “shampoo” for “grated candle”, “shampoo” for “candle”

[8] = log of amount in headspace above wet washed hair relative to amount in shampoo, 1% odorant mixture, 3 h standing, SPME 15 min
[9] = log of amount in headspace relative to amount in washing powder, 0.5% odorant mixture, SPME 15 min
[10] = log of amount in headspace relative to amount in soap, 1.2% odorant mixture, grated soap, SPME 15 min

| Structure (SMILES) | Activity (logarithmic partition parameter above wet hair) [1, 8] | Activity (logarithmic partition parameter above gel room air fresheners) [2] | Activity (logarithmic partition parameter above candle wax) [3] | Activity (logarithmic partition parameter above washing powder) [4, 9] | Activity (logarithmic partition parameter above dissolved WC scented block cleaners) [5] | Activity (logarithmic partition parameter above soap) [6, 10] | Activity (logarithmic partition parameter above shampoo) [7] | Activity (logarithmic partition parameter above wet hair) [1] | Activity (logarithmic partition parameter above washing powder) [4] | Activity (logarithmic partition parameter above soap) [6] |
| --- | --- | --- | --- | --- | --- | --- | --- | --- | --- | --- |
| CC(=O)O[C@@H]1C[C@H]2CC[C@]1(C)C2(C)C (racemic) [Isobornyl acetate] | −0.741 | 0.392 | −0.588 | 0.061 | −0.434 | 0.147 | −0.026 | – | – | – |
| C=C1C2CCC(C2)C1(C)C (stereo not drawn) [Camphene] | −0.721 | −0.116 | 0.783 | 0.357 | −1.348 | 0.392 | 0.777 | – | – | – |
| C[C@@H]1CC[C@H]2C(C)(C)[C@H]3C[C@@]12CC[C@@]3(C)O [Cedrol] | −2.475 | −1.761 | – | −1.547 | −1.348 | −2.090 | – | – | – | – |
| CC(=O)O[C@]1(C)CC[C@@]23C[C@@H]1C(C)(C)[C@@H]2CC[C@H]3C [Cedryl acetate] | – | −2.566 | – | – | −1.161 | – | – | −2.685 | −1.971 | −2.483 |
| CCOC(=O)c1ccccc1C(=O)OCC [Diethyl phthalate] | – | −2.303 | −2.459 | −2.124 | – | −1.742 | – | – | – | – |
| C=CC(C)CCCC(C)(C)O (stereo not drawn) [Dihydromyrcenol] | −1.056 | 0.460 | −0.324 | 0.184 | −1.131 | 0.076 | −0.287 | – | – | – |
| CC(CC=O)CCCC(C)(C)O (stereo not drawn) [Hydroxycitronellal] | −2.381 | −1.161 | −1.869 | −1.609 | – | −1.804 | – | – | – | – |
| CC(=O)/C=C/C1C(C)=CCCC1(C)C (stereo not drawn) [Ionone, alpha] | −1.559 | −0.515 | −1.441 | −0.697 | −1.152 | −0.701 | −1.157 | – | – | – |
| CC(=O)/C=C/C1=C(C)CCCC1(C)C [Ionone, beta] | −1.636 | −0.662 | −1.606 | −0.778 | −0.819 | −0.837 | −1.282 | – | – | – |

The next lines start with results.

| Activity (logarithmic partition parameter above wet hair) [1, 8] | Activity (logarithmic partition parameter above gel room air fresheners) [2] | Activity (logarithmic partition parameter above candle wax) [3] | Activity (logarithmic partition parameter above washing powder) [4, 9] | Activity (logarithmic partition parameter above dissolved WC scented block cleaners) [5] | Activity (logarithmic partition parameter above soap) [6, 10] | Activity (logarithmic partition parameter above shampoo) [7] | Structure (SMILES) | Activity (logarithmic partition parameter above wet hair) [1] | Activity (logarithmic partition parameter above washing powder) [4] | Activity (logarithmic partition parameter above soap) [6] |
| --- | --- | --- | --- | --- | --- | --- | --- | --- | --- | --- |
| −1.006 | 0.594 | −0.244 | 0.224 | −1.552 | 0.538 | −0.293 | CC(=O)OCc1ccccc1 [Benzyl acetate] | – | – | – |
| −1.867 | 0.148 | −0.364 | −0.389 | – | −0.088 | −0.759 | OCc1ccccc1 [Benzyl alcohol] | – | – | – |
| – | – | – | −2.349 | −3.166 | – | – | O=C(OCc1ccccc1)c1ccccc1O [Benzyl salicylate] | – | – | – |
| −1.818 | −0.158 | −1.159 | −0.780 | −1.575 | −0.787 | −1.406 | CC(C)=CCCC(C)CCO (stereo not drawn) [Citronellol] | – | – | – |
| −1.127 | 0.125 | −0.856 | −0.041 | −0.992 | 0.059 | −0.513 | CC(=O)OC(C)(C)Cc1ccccc1 [DMBCA, dimethylbenzylcarbinyl acetate] | – | – | – |
| −2.257 | −0.653 | −0.822 | −1.440 | −2.412 | −1.435 | – | C=CCc1ccc(O)c(OC)c1 [Eugenol] | – | – | – |
| −2.043 | −0.365 | −1.273 | −0.976 | −2.045 | −0.952 | −1.839 | CC(C)=CCC/C(C)=C/CO [Geraniol] | – | – | – |
| −2.690 | – | – | −1.559 | −1.413 | −2.176 | – | CCCCCC/C(C=O)=C\c1ccccc1 [Hexylcinnamaldehyde, alpha] | – | – | – |
| −1.612 | −1.544 | – | −1.467 | −0.870 | −1.190 | −1.716 | CC(C)CCOC(=O)c1ccccc1O [Isoamyl salicylate] | – | – | – |
| −0.183 | 0.062 | – | – | −1.102 | 0.748 | 0.965 | C=C(C)[C@H]1CC=C(C)CC1 [Limonene D] | – | – | – |
